According to publication PMC4716540 (British Journal of Cancer, 2015):

Test system: patients with confirmed relapsed/refractory MM, CLL, or NHL
Assay: Phase I safety and tolerability: adverse events, DLT, MTD, RP2D
Assay type: in vivo, human

CCc1c(O)cc(O)c(C(=O)c2ccc(OCCN3CCOCC3)c(OC)c2)c1CC(=O)N(CCOC)CCOC [KW-2478] was tested, and the “Number of treatment-related AEs per patient (average)” value (14 mg m^–2) was 1.0, the “AE (treatment-emergent)” value (14 mg m^–2 (n=3)) was 3 (100.0) No. of patients (%) and the “Abdominal pain (any AE)” value (14 mg m^–2 (n=3)) was 0 No. of patients (%). For the same compound, the “Acne (any AE)” value (14 mg m^–2 (n=3)) was 0 No. of patients (%), the “Anaemia (any AE)” value (14 mg m^–2 (n=3)) was 0 No. of patients (%) and the “Anorexia (any AE)” value (14 mg m^–2 (n=3)) was 0 No. of patients (%). The “Back pain (any AE)” value (14 mg m^–2 (n=3)) was 1 (33.3) No. of patients (%), the “Diarrhoea (any AE)” value (14 mg m^–2 (n=3)) was 0 No. of patients (%) and the “Dizziness (any AE)” value (14 mg m^–2 (n=3)) was 0 No. of patients (%). For the same compound, the “Fatigue (any AE)” value (14 mg m^–2 (n=3)) was 1 (33.3) No. of patients (%), the “Haemoglobin decreased (any AE)” value (14 mg m^–2 (n=3)) was 0 No. of patients (%) and the “Hair disorder (any AE)” value (14 mg m^–2 (n=3)) was 0 No. of patients (%). For the same compound, the “Headache (any AE)” value (14 mg m^–2 (n=3)) was 1 (33.3) No. of patients (%), the “Herpes simplex infection (any AE)” value (14 mg m^–2 (n=3)) was 0 No. of patients (%) and the “Hypertension (any AE)” value (14 mg m^–2 (n=3)) was 0 No. of patients (%). For the same compound, the “LRTI (any AE)” value (14 mg m^–2 (n=3)) was 0 No. of patients (%), the “Musculoskeletal chest pain (any AE)” value (14 mg m^–2 (n=3)) was 0 No. of patients (%) and the “Nausea (any AE)” value (14 mg m^–2 (n=3)) was 1 (33.3) No. of patients (%). For the same compound, the “Oral herpes (any AE)” value (14 mg m^–2 (n=3)) was 0 No. of patients (%), the “Rhinitis (any AE)” value (14 mg m^–2 (n=3)) was 1 (33.3) No. of patients (%) and the “Serious AE” value (14 mg m^–2 (n=3)) was 0 No. of patients (%). For the same compound, the “Treatment-related AE” value (14 mg m^–2 (n=3)) was 2 (66.7) No. of patients (%), the “Vomiting (any AE)” value (14 mg m^–2 (n=3)) was 0 No. of patients (%) and the “AE (treatment-emergent)” value (28 mg m^–2 (n=3)) was 3 (100.0) No. of patients (%). For the same compound, the “Abdominal pain (any AE)” value (28 mg m^–2 (n=3)) was 0 No. of patients (%), the “Acne (any AE)” value (28 mg m^–2 (n=3)) was 1 (33.3) No. of patients (%) and the “Anaemia (any AE)” value (28 mg m^–2 (n=3)) was 0 No. of patients (%). For the same compound, the “Anorexia (any AE)” value (28 mg m^–2 (n=3)) was 0 No. of patients (%), the “Back pain (any AE)” value (28 mg m^–2 (n=3)) was 1 (33.3) No. of patients (%) and the “Diarrhoea (any AE)” value (28 mg m^–2 (n=3)) was 0 No. of patients (%). The “Dizziness (any AE)” value (28 mg m^–2 (n=3)) was 0 No. of patients (%), the “Fatigue (any AE)” value (28 mg m^–2 (n=3)) was 0 No. of patients (%) and the “Haemoglobin decreased (any AE)” value (28 mg m^–2 (n=3)) was 0 No. of patients (%). For the same compound, the “Hair disorder (any AE)” value (28 mg m^–2 (n=3)) was 1 (33.3) No. of patients (%), the “Headache (any AE)” value (28 mg m^–2 (n=3)) was 0 No. of patients (%) and the “Herpes simplex infection (any AE)” value (28 mg m^–2 (n=3)) was 1 (33.3) No. of patients (%). For the same compound, the “Hypertension (any AE)” value (28 mg m^–2 (n=3)) was 0 No. of patients (%), the “LRTI (any AE)” value (28 mg m^–2 (n=3)) was 0 No. of patients (%) and the “Musculoskeletal chest pain (any AE)” value (28 mg m^–2 (n=3)) was 0 No. of patients (%). For the same compound, the “Nausea (any AE)” value (28 mg m^–2 (n=3)) was 1 (33.3) No. of patients (%), the “Oral herpes (any AE)” value (28 mg m^–2 (n=3)) was 1 (33.3) No. of patients (%) and the “Rhinitis (any AE)” value (28 mg m^–2 (n=3)) was 1 (33.3) No. of patients (%). For the same compound, the “Serious AE” value (28 mg m^–2 (n=3)) was 0 No. of patients (%), the “Treatment-related AE” value (28 mg m^–2 (n=3)) was 2 (66.7) No. of patients (%) and the “Vomiting (any AE)” value (28 mg m^–2 (n=3)) was 1 (33.3) No. of patients (%). The “AE (treatment-emergent)” value (47 mg m^–2 (n=4)) was 4 (100.0) No. of patients (%), the “Abdominal pain (any AE)” value (47 mg m^–2 (n=4)) was 0 No. of patients (%) and the “Acne (any AE)” value (47 mg m^–2 (n=4)) was 1 (25.0) No. of patients (%). The “Anaemia (any AE)” value (47 mg m^–2 (n=4)) was 1 (25.0) No. of patients (%), the “Anorexia (any AE)” value (47 mg m^–2 (n=4)) was 0 No. of patients (%) and the “Back pain (any AE)” value (47 mg m^–2 (n=4)) was 0 No. of patients (%). For the same compound, the “Diarrhoea (any AE)” value (47 mg m^–2 (n=4)) was 2 (50.0) No. of patients (%), the “Dizziness (any AE)” value (47 mg m^–2 (n=4)) was 0 No. of patients (%) and the “Fatigue (any AE)” value (47 mg m^–2 (n=4)) was 0 No. of patients (%). The “Haemoglobin decreased (any AE)” value (47 mg m^–2 (n=4)) was 0 No. of patients (%), the “Hair disorder (any AE)” value (47 mg m^–2 (n=4)) was 1 (25.0) No. of patients (%) and the “Headache (any AE)” value (47 mg m^–2 (n=4)) was 0 No. of patients (%). The “Herpes simplex infection (any AE)” value (47 mg m^–2 (n=4)) was 0 No. of patients (%), the “Hypertension (any AE)” value (47 mg m^–2 (n=4)) was 2 (50.0) No. of patients (%) and the “LRTI (any AE)” value (47 mg m^–2 (n=4)) was 0 No. of patients (%). For the same compound, the “Musculoskeletal chest pain (any AE)” value (47 mg m^–2 (n=4)) was 0 No. of patients (%), the “Nausea (any AE)” value (47 mg m^–2 (n=4)) was 0 No. of patients (%) and the “Oral herpes (any AE)” value (47 mg m^–2 (n=4)) was 0 No. of patients (%). For the same compound, the “Rhinitis (any AE)” value (47 mg m^–2 (n=4)) was 1 (25.0) No. of patients (%), the “Serious AE” value (47 mg m^–2 (n=4)) was 0 No. of patients (%) and the “Treatment-related AE” value (47 mg m^–2 (n=4)) was 3 (75.0) No. of patients (%). The “Vomiting (any AE)” value (47 mg m^–2 (n=4)) was 1 (25.0) No. of patients (%), the “AE (treatment-emergent)” value (71 mg m^–2 (n=4)) was 4 (100.0) No. of patients (%) and the “Abdominal pain (any AE)” value (71 mg m^–2 (n=4)) was 0 No. of patients (%). For the same compound, the “Acne (any AE)” value (71 mg m^–2 (n=4)) was 1 (25.0) No. of patients (%), the “Anaemia (any AE)” value (71 mg m^–2 (n=4)) was 0 No. of patients (%) and the “Anorexia (any AE)” value (71 mg m^–2 (n=4)) was 0 No. of patients (%). For the same compound, the “Back pain (any AE)” value (71 mg m^–2 (n=4)) was 0 No. of patients (%), the “Diarrhoea (any AE)” value (71 mg m^–2 (n=4)) was 2 (50.0) No. of patients (%) and the “Dizziness (any AE)” value (71 mg m^–2 (n=4)) was 2 (50.0) No. of patients (%). For the same compound, the “Fatigue (any AE)” value (71 mg m^–2 (n=4)) was 1 (25.0) No. of patients (%), the “Haemoglobin decreased (any AE)” value (71 mg m^–2 (n=4)) was 1 (25.0) No. of patients (%) and the “Hair disorder (any AE)” value (71 mg m^–2 (n=4)) was 1 (25.0) No. of patients (%). The “Headache (any AE)” value (71 mg m^–2 (n=4)) was 2 (50.0) No. of patients (%), the “Herpes simplex infection (any AE)” value (71 mg m^–2 (n=4)) was 1 (25.0) No. of patients (%) and the “Hypertension (any AE)” value (71 mg m^–2 (n=4)) was 2 (50.0) No. of patients (%). For the same compound, the “LRTI (any AE)” value (71 mg m^–2 (n=4)) was 1 (25.0) No. of patients (%), the “Musculoskeletal chest pain (any AE)” value (71 mg m^–2 (n=4)) was 0 No. of patients (%) and the “Nausea (any AE)” value (71 mg m^–2 (n=4)) was 2 (50.0) No. of patients (%). The “Oral herpes (any AE)” value (71 mg m^–2 (n=4)) was 1 (25.0) No. of patients (%), the “Rhinitis (any AE)” value (71 mg m^–2 (n=4)) was 1 (25.0) No. of patients (%) and the “Serious AE” value (71 mg m^–2 (n=4)) was 2 (50) No. of patients (%). For the same compound, the “Treatment-related AE” value (71 mg m^–2 (n=4)) was 4 (100.0) No. of patients (%), the Death (71 mg m^–2 (n=4), considered unrelated to medication) was 1 (25) No. of patients (%) and the “AE (treatment-emergent)” value (99 mg m^–2 (n=4)) was 4 (100.0) No. of patients (%).
